Positions count from the first letter of the chain named.
Key:
Assay in all cases: KINOMEscan kinase binding assay (Eurofins/DiscoveRx), % Ctrl
[1] = molecular target: T1, kinases (Homo sapiens, UniProt P36888, K663Q)
T1 construct: purchased Eurofins/DiscoveRx; host or cells: E. coli BL21-derived host (T7 phage display) for most kinases; HEK-293 for the rest
T1 sequence (P36888 27-993 K663Q): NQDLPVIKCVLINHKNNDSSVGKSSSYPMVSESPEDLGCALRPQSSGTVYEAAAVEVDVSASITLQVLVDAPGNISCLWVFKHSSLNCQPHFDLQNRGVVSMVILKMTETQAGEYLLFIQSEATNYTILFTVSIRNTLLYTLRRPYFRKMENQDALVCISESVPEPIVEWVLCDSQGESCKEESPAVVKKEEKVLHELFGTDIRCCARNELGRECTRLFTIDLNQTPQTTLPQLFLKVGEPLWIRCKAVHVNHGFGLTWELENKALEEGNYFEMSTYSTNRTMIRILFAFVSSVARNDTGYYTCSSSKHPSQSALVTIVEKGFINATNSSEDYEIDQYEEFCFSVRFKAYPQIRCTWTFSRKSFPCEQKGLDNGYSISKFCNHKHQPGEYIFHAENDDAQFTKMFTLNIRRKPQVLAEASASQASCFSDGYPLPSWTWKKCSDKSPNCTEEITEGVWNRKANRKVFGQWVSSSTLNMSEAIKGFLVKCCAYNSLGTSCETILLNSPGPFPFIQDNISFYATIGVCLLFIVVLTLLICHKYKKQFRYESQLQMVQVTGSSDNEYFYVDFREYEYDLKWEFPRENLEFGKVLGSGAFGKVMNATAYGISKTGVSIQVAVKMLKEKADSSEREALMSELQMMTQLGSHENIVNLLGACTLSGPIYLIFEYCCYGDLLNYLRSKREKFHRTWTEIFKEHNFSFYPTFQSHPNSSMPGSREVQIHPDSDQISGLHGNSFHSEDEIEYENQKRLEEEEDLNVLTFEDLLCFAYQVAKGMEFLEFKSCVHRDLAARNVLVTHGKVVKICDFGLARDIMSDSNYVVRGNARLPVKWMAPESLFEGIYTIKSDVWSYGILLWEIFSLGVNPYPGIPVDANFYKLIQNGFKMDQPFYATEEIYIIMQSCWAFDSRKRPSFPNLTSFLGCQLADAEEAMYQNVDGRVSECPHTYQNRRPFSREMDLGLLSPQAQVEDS
In short: (§1)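 Competition binding, 1 h RT: phage-tagged or HEK-293-expressed DNA-tagged kinase + immobilized ligand + compound. Eluate kinase by qPCR. % Ctrl = (test − positive ctrl)/(negative ctrl − positive ctrl) × 100; lower means stronger binding.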

[2] = molecular target: T2, kinases (Homo sapiens, UniProt P10721, A829P)
T2 construct: purchased Eurofins/DiscoveRx; host or cells: E. coli BL21-derived host (T7 phage display) for most kinases; HEK-293 for the rest
In short: as §1

[3] = molecular target: T3, kinases (Homo sapiens, UniProt P36888)
T3 construct: purchased Eurofins/DiscoveRx; host or cells: E. coli BL21-derived host (T7 phage display) for most kinases; HEK-293 for the rest
T3 sequence (P36888 27-993): T1 sequence (P36888 27-993 K663Q) with Q637K
In short: as §1

[4] = molecular target: T4, kinases (Homo sapiens, UniProt P00519, T315I)
T4 construct: purchased Eurofins/DiscoveRx; host or cells: E. coli BL21-derived host (T7 phage display) for most kinases; HEK-293 for the rest
In short: as §1

[5] = 1 μM; ABL1(T315I)-nonphosphorylated
[6] = 1 μM; ABL1(T315I)-phosphorylated
[7] = 1 μM; target FLT3-autoinhibited
[8] = 1 μM; target ABL1(T315I)-nonphosphorylated
[9] = 1 μM; target ABL1(T315I)-phosphorylated

T2 sequence (P10721 26-976 A829P): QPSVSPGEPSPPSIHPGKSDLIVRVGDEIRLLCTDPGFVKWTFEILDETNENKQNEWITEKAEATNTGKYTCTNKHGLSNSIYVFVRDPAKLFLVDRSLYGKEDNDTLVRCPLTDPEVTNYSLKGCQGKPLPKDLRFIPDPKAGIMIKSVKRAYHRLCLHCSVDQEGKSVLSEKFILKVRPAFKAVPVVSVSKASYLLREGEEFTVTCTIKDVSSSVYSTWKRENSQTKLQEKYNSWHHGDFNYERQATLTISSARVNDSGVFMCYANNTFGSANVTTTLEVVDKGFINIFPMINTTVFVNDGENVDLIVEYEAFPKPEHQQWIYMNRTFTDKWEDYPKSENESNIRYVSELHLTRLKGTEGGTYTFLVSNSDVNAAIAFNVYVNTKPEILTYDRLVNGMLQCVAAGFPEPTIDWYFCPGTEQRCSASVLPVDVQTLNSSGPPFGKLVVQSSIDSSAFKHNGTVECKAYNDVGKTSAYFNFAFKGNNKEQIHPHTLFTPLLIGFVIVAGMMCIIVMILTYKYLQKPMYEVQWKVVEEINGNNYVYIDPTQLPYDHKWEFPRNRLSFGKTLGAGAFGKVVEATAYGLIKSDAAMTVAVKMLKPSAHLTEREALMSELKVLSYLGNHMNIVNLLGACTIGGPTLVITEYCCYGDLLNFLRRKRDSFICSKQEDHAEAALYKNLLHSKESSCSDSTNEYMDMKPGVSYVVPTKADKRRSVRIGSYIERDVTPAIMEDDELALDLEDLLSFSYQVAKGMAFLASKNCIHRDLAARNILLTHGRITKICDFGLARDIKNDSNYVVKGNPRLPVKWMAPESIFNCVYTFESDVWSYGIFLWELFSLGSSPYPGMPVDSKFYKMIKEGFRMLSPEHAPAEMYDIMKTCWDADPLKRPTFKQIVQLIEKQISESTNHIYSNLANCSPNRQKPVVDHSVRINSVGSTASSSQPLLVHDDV

| Compound | % Ctrl, FLT3(K663Q) ([1]; 1 μM; FLT3(K663Q)) | % Ctrl, KIT(A829P) ([2]; 1 μM; KIT(A829P)) | % Ctrl, FLT3 ([3]; 1 μM; FLT3) | % Ctrl, FLT3-autoinhibited ([3]; 1 μM; FLT3-autoinhibited) | % Ctrl, ABL1(T315I)-nonphosphorylated [4, 5] | % Ctrl, ABL1(T315I)-phosphorylated [4, 6] | other results |
| --- | --- | --- | --- | --- | --- | --- | --- |
| Cc1cc2c([nH]1)/C=C1\C(=O)Nc3cc(Cl)c(cc31)OCCOCCN(C)C2=O [Ex. 131, [16a(17)Z]-19-chloro-2,5-dimethyl-6,7,9,10-tetrahydro-1H-12,14-(ethanediylidene)dipyrrolo[3,2-i:3′,4′-l][1,4,7]dioxazacyclopentadecine-4,16(5H,15H)-dione] | 7.4 % Ctrl | 4 % Ctrl | 0.6 % Ctrl | 5.1 % Ctrl | 0 % Ctrl | 1.1 % Ctrl | – |
| CN1CCOc2cc3c(cc2Cl)NC(=O)/C3=C\c2[nH]ccc2C(=O)N(C)CC1 [Ex. 164, [16a(17)Z]-19-chloro-2,5,8-trimethyl-5,6,7,8,9,10-hexahydro-12,14-(ethanediylidene)dipyrrolo[3,2-i:3′,4′-l][1,4,7]oxadiazacyclopentadecine-4,16(1H,15H)-dione] | – | – | – | – | – | – | % Ctrl, FLT3(K663Q) ([1]; 1 μM; target FLT3(K663Q)): 1.4 % Ctrl; % Ctrl, KIT(A829P) ([2]; 1 μM; target KIT(A829P)): 33 % Ctrl; % Ctrl, FLT3 ([3]; 1 μM; target FLT3): 2.5 % Ctrl; % Ctrl, FLT3-autoinhibited [3, 7]: 63 % Ctrl; % Ctrl, ABL1(T315I)-nonphosphorylated [4, 8]: 0.6 % Ctrl; % Ctrl, ABL1(T315I)-phosphorylated [4, 9]: 1.4 % Ctrl |
| Cc1cc2c([nH]1)/C=C1\C(=O)Nc3cnc(cc31)-c1cnn(C)c1CN(C)CCN(C)C2=O [Ex. 172, [3a(4)Z]-6,9,12,14-tetramethyl-9,10,11,12,13,14-hexahydro-17,1-(azenometheno)pyrazolo[4,3-m]dipyrrolo[3,2-f:3′,4′-i][1,4]diazacyclopentadecine-3,8(2H,5H)-dione] | – | – | – | – | – | – | % Ctrl, FLT3(K663Q) ([1]; 1 μM; target FLT3(K663Q)): 0.6 % Ctrl; % Ctrl, KIT(A829P) ([2]; 1 μM; target KIT(A829P)): 31 % Ctrl; % Ctrl, FLT3 ([3]; 1 μM; target FLT3): 8.5 % Ctrl; % Ctrl, FLT3-autoinhibited [3, 7]: 90 % Ctrl; % Ctrl, ABL1(T315I)-nonphosphorylated [4, 8]: 0 % Ctrl; % Ctrl, ABL1(T315I)-phosphorylated [4, 9]: 1.7 % Ctrl |
| Cc1cc2c([nH]1)/C=C1\C(=O)Nc3cc(Cl)c(cc31)SCCOCCN(C)C2=O [Ex. 169, [16a(17)Z]-19-chloro-5-methyl-6,7,9,10-tetrahydro-1H-12,14-(ethanediylidene)dipyrrolo[3,4-g:2′,3′-j][1,4,13]oxathiazacyclopentadecine-4,16(5H,15H)-dione] | – | – | – | – | – | – | % Ctrl, FLT3(K663Q) ([1]; 1 μM; target FLT3(K663Q)): 2.7 % Ctrl; % Ctrl, KIT(A829P) ([2]; 1 μM; target KIT(A829P)): 22 % Ctrl; % Ctrl, FLT3 ([3]; 1 μM; target FLT3): 1.8 % Ctrl; % Ctrl, FLT3-autoinhibited [3, 7]: 12 % Ctrl; % Ctrl, ABL1(T315I)-nonphosphorylated [4, 8]: 0.3 % Ctrl; % Ctrl, ABL1(T315I)-phosphorylated [4, 9]: 0.1 % Ctrl |
| Cc1cc2c([nH]1)/C=C1\C(=O)Nc3ccc(nc31)-c1ccccc1OCCCNC2=O [Ex.22, [3a(4)Z]-6-methyl-9,10,11,12-tetrahydro-1,18-(ethanediylidene)dipyrrolo[3,2-g:3′,4′-j][1,5,12]benzoxadiazacyclopentadecine-3,8(2H,5H)-dione] | 100 % Ctrl | 100 % Ctrl | 81 % Ctrl | 100 % Ctrl | 97 % Ctrl | 100 % Ctrl | – |
| Cc1cc2c([nH]1)/C=C1\C(=O)Nc3cnc(cc31)-c1cnn(C)c1COCCNC2=O [Ex.123, [3a(4)Z]-6,14-dimethyl-10,11,13,14-tetrahydro-2H-17,1-(azenometheno)pyrazolo[4,3-m]dipyrrolo[3,2-f:3′,4′-i][1,4]oxazacyclopentadecine-3,8(5H,9H)-dione] | 77 % Ctrl | 100 % Ctrl | 87 % Ctrl | 100 % Ctrl | 100 % Ctrl | 100 % Ctrl | – |
| CN1CCSCCOc2cc3c(cc2Cl)NC(=O)/C3=C\c2[nH]ccc2C1=O [Ex. 153] | – | – | – | – | – | – | % Ctrl, FLT3(K663Q) ([1]; target FLT3(K663Q); 1 μM): 1.4 % Ctrl; % Ctrl, KIT(A829P) ([2]; target KIT(A829P); 1 μM): 43 % Ctrl; % Ctrl, FLT3-autoinhibited ([3]; target FLT3-autoinhibited; 1 μM): 26 % Ctrl; % Ctrl, FLT3 ([3]; target FLT3; 1 μM): 1.6 % Ctrl; % Ctrl, ABL1(T315I)-nonphosphorylated ([4]; target ABL1(T315I)-nonphosphorylated; 1 μM): 17 % Ctrl; % Ctrl, ABL1(T315I)-phosphorylated ([4]; target ABL1(T315I)-phosphorylated; 1 μM): 25 % Ctrl |
| Cc1cc2c([nH]1)/C=C1\C(=O)Nc3ccc(cc31)-c1cnn(C)c1CN(C)CCN(C)C2=O [Ex. 126, [3a(4)Z]-6,9,12,14-tetramethyl-9,10,11,12,13,14-hexahydro-1,17-(ethanediylidene)pyrazolo[4,3-m]dipyrrolo[3,2-f:3′,4′-i][1,4]diazacyclopentadecine-3,8(2H,5H)-dione] | 4.2 % Ctrl | 0 % Ctrl | 0.2 % Ctrl | 0.25 % Ctrl | 0 % Ctrl | 0 % Ctrl | – |

The next lines start with results.

| % Ctrl, FLT3(K663Q) ([1]; 1 μM; FLT3(K663Q)) | % Ctrl, KIT(A829P) ([2]; 1 μM; KIT(A829P)) | % Ctrl, FLT3 ([3]; 1 μM; FLT3) | % Ctrl, FLT3-autoinhibited ([3]; 1 μM; FLT3-autoinhibited) | % Ctrl, ABL1(T315I)-nonphosphorylated [4, 5] | % Ctrl, ABL1(T315I)-phosphorylated [4, 6] | Compound | other results |
| --- | --- | --- | --- | --- | --- | --- | --- |
| 77 % Ctrl | 54 % Ctrl | 48 % Ctrl | 95 % Ctrl | 94 % Ctrl | 78 % Ctrl | Cc1cc2c([nH]1)/C=C1\C(=O)Nc3cc(Cl)c(cc31)OCCO[C@@H](C(=O)NC1CNC1)CN(C)C2=O [Ex. 133, [7R,16a(17)Z]-N-(azetidin-3-yl)-19-chloro-2,5-dimethyl-4,16-dioxo-4,5,6,7,9,10,15,16-octahydro-1H-12,14-(ethanediylidene)dipyrrolo[3,2-i:3′,4′-l][1,4,7]dioxazacyclopentadecine-7-carboxamide] | – |
| 73 % Ctrl | 69 % Ctrl | 48 % Ctrl | 95 % Ctrl | 84 % Ctrl | 46 % Ctrl | Cc1cc2c([nH]1)/C=C1\C(=O)Nc3cc(Cl)c(cc31)OCCO[C@@H](C(=O)NC1CCNCC1)CN(C)C2=O [Ex. 134, [7R,16a(17)Z]-19-chloro-2,5-dimethyl-4,16-dioxo-N-(piperidin-4-yl)-4,5,6,7,9,10,15,16-octahydro-1H-12,14-(ethaneidylidene)dipyrrolo[3,2-i:3′,4′-l][1,4,7]dioxazacyclopentadecine-7-carboxamide] | – |
| 66 % Ctrl | 75 % Ctrl | 57 % Ctrl | 89 % Ctrl | 94 % Ctrl | 72 % Ctrl | CNC(=O)[C@H]1CN(C)C(=O)c2cc(C)[nH]c2/C=C2\C(=O)Nc3cc(Cl)c(cc32)OCCO1 [Ex. 135, [7R,16a(17)Z]-19-chloro-N,2,5-trimethyl-4,16-dioxo-4,5,6,7,9,10,15,16-octahydro-1H-12,14-(ethanediylidene)dipyrrolo[3,2-i:3′,4′-l][1,4,7]dioxazacyclopentadecine-7-carboxamide] | – |
